Experimental data: US20230085307A1, “PYRIDAZINONE COMPOUND AND HERBICIDE” (NISSAN CHEMICAL CORPORATION, priority 2019, published 2023)

Columns and labels:
[1] = tested on: persian speedwell; experiment: Test Example 4: herbicidal effect by soil treatment (Table 19, symbol R); type: in vivo, Persian speedwell (Veronica persica); details: amount of applied herbicide 320 g/ha
Procedure, shortened: (§1)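 Soil-surface application: an emulsion agent diluted with water to the predetermined dose is sprayed uniformly over seeds lying under roughly 1.5 cm of sterilized diluvial soil. Boxes stay in a greenhouse at 25° C. to 30° C. Three weeks later, each species is graded on previously defined criteria.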

[2] = tested on: persian speedwell; experiment: Test Example 5: herbicidal effect by foliage application, plastic box (Table 20, symbol R); type: in vivo, Persian speedwell (Veronica persica); details: 320 g/ha, foliage application after 14-day growth, evaluated three weeks after application
Procedure, shortened: (§2)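 Sow seeds spot-wise in sterilized diluvial soil; cover with ~1.5 cm soil. Grow 14 days in greenhouse, 25° C. to 30° C. Spray foliage with emulsion diluted to predetermined amount. Rate effect after 3 weeks.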

[3] = tested on: chickweed; experiment: Test Example 5: herbicidal effect by foliage application, plastic box (Table 20, symbol P); type: in vivo, common chickweed (Stellaria media); details: 320 g/ha, foliage application after 14-day growth, evaluated three weeks after application
Procedure, shortened: as §2

[4] = tested on: windgrass; experiment: Test Example 4: herbicidal effect by soil treatment (Table 19, symbol L); type: in vivo, windgrass (Apera spica-venti); details: amount of applied herbicide 320 g/ha
Procedure, shortened: as §1

[5] = tested on: oval-leafed pondweed; experiment: Test Example 1: herbicidal activity, application before weed generation under submerged conditions (Table 16, symbol C); type: in vivo, oval-leafed pondweed (Monochoria vaginalis); details: amount of applied herbicide 320 g/ha
Procedure, shortened: (§3)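 Emulsion formulation, water-diluted to set dose, was put onto the flooded surface (4 cm depth, alluvial soil) the same day weeds were sown and 2.5-leaf rice transplanted. After 3 weeks at 25-30 °C under glass, each species was rated 0 (≤5% kill) to 5 (≥90% kill).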

[6] = tested on: wild oat; experiment: Test Example 5: herbicidal effect by foliage application, plastic box (Table 20, symbol I); type: in vivo, wild oat (Avena fatua); details: 320 g/ha, foliage application after 14-day growth, evaluated three weeks after application
Procedure, shortened: as §2

[7] = tested on: blackgrass; experiment: Test Example 4: herbicidal effect by soil treatment (Table 19, symbol J); type: in vivo, blackgrass (Alopecurus myosuroides); details: amount of applied herbicide 320 g/ha
Procedure, shortened: as §1

[8] = tested on: green foxtail; experiment: Test Example 5: herbicidal effect by foliage application, plastic box (Table 20, symbol G); type: in vivo, green foxtail (Setaria viridis); details: 320 g/ha, foliage application after 14-day growth, evaluated three weeks after application
Procedure, shortened: as §2

[9] = tested on: Italian ryegrass; experiment: Test Example 5: herbicidal effect by foliage application, plastic box (Table 20, symbol K); type: in vivo, Italian ryegrass (Lolium multiflorum); details: 320 g/ha, foliage application after 14-day growth, evaluated three weeks after application
Procedure, shortened: as §2

[10] = tested on: blackgrass; experiment: Test Example 5: herbicidal effect by foliage application, plastic box (Table 20, symbol J); type: in vivo, blackgrass (Alopecurus myosuroides); details: 320 g/ha, foliage application after 14-day growth, evaluated three weeks after application
Procedure, shortened: as §2

[11] = tested on: Chinese sprangletop; experiment: Test Example 3: herbicidal effect by foliage application, Wagner pot (Table 18, symbol D); type: in vivo, chinese sprangletop (Leptochloa chinensis); details: 320 g/ha
Procedure, shortened: (§4)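 Plants were sown in alluvial soil held under 0.1–0.5 cm standing water and grown 14 days in a greenhouse at 25–30 °C. An emulsifiable formulation, water-diluted to the set dose, was then sprayed onto the foliage, and effects were scored three weeks later using previously defined criteria.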

[12] = tested on: wild oat; experiment: Test Example 4: herbicidal effect by soil treatment (Table 19, symbol I); type: in vivo, wild oat (Avena fatua); details: amount of applied herbicide 320 g/ha
Procedure, shortened: as §1

[13] = tested on: barnyard grass; experiment: Test Example 4: herbicidal effect by soil treatment (Table 19, symbol H); type: in vivo, barnyard grass (Echinochloa crus-galli); details: amount of applied herbicide 320 g/ha
Procedure, shortened: as §1

[14] = tested on: Japanese bulrush; experiment: Test Example 1: herbicidal activity, application before weed generation under submerged conditions (Table 16, symbol B); type: in vivo, Japanese bulrush (Schoenoplectus juncoides); details: amount of applied herbicide 320 g/ha
Procedure, shortened: as §3

[15] = tested on: rice flat sedge; experiment: Test Example 3: herbicidal effect by foliage application, Wagner pot (Table 18, symbol E); type: in vivo, rice flat sedge (Cyperus iria); details: 320 g/ha
Procedure, shortened: as §4

[16] = tested on: velvetleaf; experiment: Test Example 5: herbicidal effect by foliage application, plastic box (Table 20, symbol M); type: in vivo, velvetleaf (Abutilon theophrasti); details: 320 g/ha, foliage application after 14-day growth, evaluated three weeks after application
Procedure, shortened: as §2

[17] = tested on: barnyard grass; experiment: Test Example 3: herbicidal effect by foliage application, Wagner pot (Table 18, symbol H); type: in vivo, barnyard grass (Echinochloa crus-galli); details: 320 g/ha
Procedure, shortened: as §4

[18] = tested on: late watergrass; experiment: Test Example 1: herbicidal activity, application before weed generation under submerged conditions (Table 16, symbol A); type: in vivo, late watergrass (Echinochloa oryzicola); details: amount of applied herbicide 320 g/ha
Procedure, shortened: as §3

[19] = tested on: redroot pigweed; experiment: Test Example 4: herbicidal effect by soil treatment (Table 19, symbol N); type: in vivo, redroot pigweed (Amaranthus retroflexus); details: amount of applied herbicide 320 g/ha
Procedure, shortened: as §1

[20] = tested on: velvetleaf; experiment: Test Example 4: herbicidal effect by soil treatment (Table 19, symbol M); type: in vivo, velvetleaf (Abutilon theophrasti); details: amount of applied herbicide 320 g/ha
Procedure, shortened: as §1

[21] = tested on: barnyard grass; experiment: Test Example 5: herbicidal effect by foliage application, plastic box (Table 20, symbol H); type: in vivo, barnyard grass (Echinochloa crus-galli); details: 320 g/ha, foliage application after 14-day growth, evaluated three weeks after application
Procedure, shortened: as §2

[22] = tested on: Italian ryegrass; experiment: Test Example 4: herbicidal effect by soil treatment (Table 19, symbol K); type: in vivo, Italian ryegrass (Lolium multiflorum); details: amount of applied herbicide 320 g/ha
Procedure, shortened: as §1

[23] = tested on: southern crabgrass; experiment: Test Example 4: herbicidal effect by soil treatment (Table 19, symbol F); type: in vivo, southern crabgrass (Digitaria ciliaris); details: amount of applied herbicide 320 g/ha
Procedure, shortened: as §1

[24] = tested on: lambsquarters; experiment: Test Example 4: herbicidal effect by soil treatment (Table 19, symbol O); type: in vivo, lambsquarters (Chenopodium album); details: amount of applied herbicide 320 g/ha
Procedure, shortened: as §1

[25] = tested on: southern crabgrass; experiment: Test Example 5: herbicidal effect by foliage application, plastic box (Table 20, symbol F); type: in vivo, southern crabgrass (Digitaria ciliaris); details: 320 g/ha, foliage application after 14-day growth, evaluated three weeks after application
Procedure, shortened: as §2

[26] = tested on: chickweed; experiment: Test Example 4: herbicidal effect by soil treatment (Table 19, symbol P); type: in vivo, common chickweed (Stellaria media); details: amount of applied herbicide 320 g/ha
Procedure, shortened: as §1

[27] = tested on: windgrass; experiment: Test Example 5: herbicidal effect by foliage application, plastic box (Table 20, symbol L); type: in vivo, windgrass (Apera spica-venti); details: 320 g/ha, foliage application after 14-day growth, evaluated three weeks after application
Procedure, shortened: as §2

[28] = tested on: green foxtail; experiment: Test Example 4: herbicidal effect by soil treatment (Table 19, symbol G); type: in vivo, green foxtail (Setaria viridis); details: amount of applied herbicide 320 g/ha
Procedure, shortened: as §1

[29] = tested on: lambsquarters; experiment: Test Example 5: herbicidal effect by foliage application, plastic box (Table 20, symbol O); type: in vivo, lambsquarters (Chenopodium album); details: 320 g/ha, foliage application after 14-day growth, evaluated three weeks after application
Procedure, shortened: as §2

[30] = tested on: redroot pigweed; experiment: Test Example 5: herbicidal effect by foliage application, plastic box (Table 20, symbol N); type: in vivo, redroot pigweed (Amaranthus retroflexus); details: 320 g/ha, foliage application after 14-day growth, evaluated three weeks after application
Procedure, shortened: as §2

Compound	Herbicidal effect by soil treatment, R: persian speedwell [1]	herbicidal effect on R: persian speedwell (evaluation grade 0-5) [2]	herbicidal effect on P: chickweed (evaluation grade 0-5) [3]	Herbicidal effect by soil treatment, L: windgrass [4]	Herbicidal effect, C: oval-leafed pondweed [5]	herbicidal effect on I: wild oat (evaluation grade 0-5) [6]	Herbicidal effect by soil treatment, J: blackgrass [7]	herbicidal effect on G: green foxtail (evaluation grade 0-5) [8]	herbicidal effect on K: Italian ryegrass (evaluation grade 0-5) [9]	herbicidal effect on J: blackgrass (evaluation grade 0-5) [10]	herbicidal effect on Chinese sprangletop (D) [11]	Herbicidal effect by soil treatment, I: wild oat [12]	Herbicidal effect by soil treatment, H: barnyard grass [13]	Herbicidal effect, B: Japanese bulrush [14]	herbicidal effect on rice flat sedge (E) [15]	herbicidal effect on M: velvetleaf (evaluation grade 0-5) [16]	herbicidal effect on barnyard grass (H) [17]	Herbicidal effect, A: late watergrass [18]	Herbicidal effect by soil treatment, N: redroot pigweed [19]	Herbicidal effect by soil treatment, M: velvetleaf [20]	also measured
COc1ccc2c(-c3c(O)c(C)nn(C)c3=O)c(-c3ccc(OC(F)F)cc3)sc2c1 [3-159]	3 (Herbicidal rate of 40% or more and less than 70%)	5 (Herbicidal rate of 90% or more (almost completely withered))	5 (Herbicidal rate of 90% or more (almost completely withered))	0 (Herbicidal rate of 5% or less (almost no effect))	3 (Herbicidal rate of 40% or more and less than 70%)	0 (Herbicidal rate of 5% or less (almost no effect))	0 (Herbicidal rate of 5% or less (almost no effect))	0 (Herbicidal rate of 5% or less (almost no effect))	4 (Herbicidal rate of 70% or more and less than 90%)	3 (Herbicidal rate of 40% or more and less than 70%)	0 (Herbicidal rate of 5% or less (almost no effect))	0 (Herbicidal rate of 5% or less (almost no effect))	0 (Herbicidal rate of 5% or less (almost no effect))	3 (Herbicidal rate of 40% or more and less than 70%)	3 (Herbicidal rate of 40% or more and less than 70%)	4 (Herbicidal rate of 70% or more and less than 90%)	2 (Herbicidal rate of 20% or more and less than 40%)	0 (Herbicidal rate of 5% or less (almost no effect))	4 (Herbicidal rate of 70% or more and less than 90%)	1 (Herbicidal rate of 5% or more and less than 20%)	herbicidal effect on H: barnyard grass (evaluation grade 0-5) [21]: 0 (Herbicidal rate of 5% or less (almost no effect)); Herbicidal effect by soil treatment, K: Italian ryegrass [22]: 0 (Herbicidal rate of 5% or less (almost no effect)); Herbicidal effect by soil treatment, F: southern crabgrass [23]: 0 (Herbicidal rate of 5% or less (almost no effect)); Herbicidal effect by soil treatment, O: lambsquarters [24]: 4 (Herbicidal rate of 70% or more and less than 90%); herbicidal effect on F: southern crabgrass (evaluation grade 0-5) [25]: 0 (Herbicidal rate of 5% or less (almost no effect)); Herbicidal effect by soil treatment, P: chickweed [26]: 0 (Herbicidal rate of 5% or less (almost no effect)); herbicidal effect on L: windgrass (evaluation grade 0-5) [27]: 0 (Herbicidal rate of 5% or less (almost no effect)); Herbicidal effect by soil treatment, G: green foxtail [28]: 0 (Herbicidal rate of 5% or less (almost no effect)); herbicidal effect on O: lambsquarters (evaluation grade 0-5) [29]: 5 (Herbicidal rate of 90% or more (almost completely withered)); herbicidal effect on N: redroot pigweed (evaluation grade 0-5) [30]: 5 (Herbicidal rate of 90% or more (almost completely withered))
CCCC(=O)Oc1c(C)nn(C)c(=O)c1-c1c(-c2ccccc2OCC)sc2c(F)cccc12 [4-008]	0 (Herbicidal rate of 5% or less (almost no effect))	4 (Herbicidal rate of 70% or more and less than 90%)	5 (Herbicidal rate of 90% or more (almost completely withered))	0 (Herbicidal rate of 5% or less (almost no effect))	0 (Herbicidal rate of 5% or less (almost no effect))	0 (Herbicidal rate of 5% or less (almost no effect))	0 (Herbicidal rate of 5% or less (almost no effect))	5 (Herbicidal rate of 90% or more (almost completely withered))	0 (Herbicidal rate of 5% or less (almost no effect))	3 (Herbicidal rate of 40% or more and less than 70%)	3 (Herbicidal rate of 40% or more and less than 70%)	0 (Herbicidal rate of 5% or less (almost no effect))	3 (Herbicidal rate of 40% or more and less than 70%)	3 (Herbicidal rate of 40% or more and less than 70%)	5 (Herbicidal rate of 90% or more (almost completely withered))	4 (Herbicidal rate of 70% or more and less than 90%)	5 (Herbicidal rate of 90% or more (almost completely withered))	3 (Herbicidal rate of 40% or more and less than 70%)	2 (Herbicidal rate of 20% or more and less than 40%)	1 (Herbicidal rate of 5% or more and less than 20%)	herbicidal effect on H: barnyard grass (evaluation grade 0-5) [21]: 4 (Herbicidal rate of 70% or more and less than 90%); Herbicidal effect by soil treatment, K: Italian ryegrass [22]: 0 (Herbicidal rate of 5% or less (almost no effect)); Herbicidal effect by soil treatment, F: southern crabgrass [23]: 2 (Herbicidal rate of 20% or more and less than 40%); Herbicidal effect by soil treatment, O: lambsquarters [24]: 2 (Herbicidal rate of 20% or more and less than 40%); herbicidal effect on F: southern crabgrass (evaluation grade 0-5) [25]: 4 (Herbicidal rate of 70% or more and less than 90%); Herbicidal effect by soil treatment, P: chickweed [26]: 1 (Herbicidal rate of 5% or more and less than 20%); herbicidal effect on L: windgrass (evaluation grade 0-5) [27]: 5 (Herbicidal rate of 90% or more (almost completely withered)); Herbicidal effect by soil treatment, G: green foxtail [28]: 3 (Herbicidal rate of 40% or more and less than 70%); herbicidal effect on O: lambsquarters (evaluation grade 0-5) [29]: 3 (Herbicidal rate of 40% or more and less than 70%); herbicidal effect on N: redroot pigweed (evaluation grade 0-5) [30]: 5 (Herbicidal rate of 90% or more (almost completely withered))
